According to PubChem BioAssay (NCI):
Several values for one entry are separate records, joined by “and”; a condition that tells them apart may be missing. Equal entries are not always repeated.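 Test compounds were applied to cells in 96-well plates for 48 hours at 5 doses. GI50 is the concentration that inhibits growth by half. TGI denotes the concentration required for complete inhibition of growth.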

Tested on: P388 leukemia
Assay: NCI tumour cell line growth inhibition, 48 h

Structure (SMILES) | TGI | GI50
CSc1nc2c(ncn2C2OCC(O)C(O)C2O)c(=O)[nH]1 (stereo not drawn) | > 100 µM | –
CC(=O)c1c(O)c(C)c(O)c2c1OC1=CC(=O)C(C(C)=O)C(=O)C12C (stereo not drawn) | 26.3 µM and 60.3 µM | 3.74 µM and 23.8 µM
